Experimental data: paper PMC7391767, “Molecular mechanisms underlying menthol binding and activation of TRPM8 ion channel” (Nature Communications, 2020)
Values joined by “and” are separate entries in the source; they are usually repeats but may differ in a detail not shown here. Equal values may be shown once. “Also recorded” adds a separate entry of the source. Read-outs that look alike come from different tables or passages of the source.

Key:
Assay type in all cases: cell-based
TRPM8 I846V = target: T1, TRPM8 I846V (Mus musculus, UniProt Q8R4D5, I846V); test: whole-cell patch-clamp and thermodynamic mutant cycle analysis
T1 construct: expressed in transfected cells; host or cells: HEK293T
T1 sequence (Q8R4D5 whole entry I846V): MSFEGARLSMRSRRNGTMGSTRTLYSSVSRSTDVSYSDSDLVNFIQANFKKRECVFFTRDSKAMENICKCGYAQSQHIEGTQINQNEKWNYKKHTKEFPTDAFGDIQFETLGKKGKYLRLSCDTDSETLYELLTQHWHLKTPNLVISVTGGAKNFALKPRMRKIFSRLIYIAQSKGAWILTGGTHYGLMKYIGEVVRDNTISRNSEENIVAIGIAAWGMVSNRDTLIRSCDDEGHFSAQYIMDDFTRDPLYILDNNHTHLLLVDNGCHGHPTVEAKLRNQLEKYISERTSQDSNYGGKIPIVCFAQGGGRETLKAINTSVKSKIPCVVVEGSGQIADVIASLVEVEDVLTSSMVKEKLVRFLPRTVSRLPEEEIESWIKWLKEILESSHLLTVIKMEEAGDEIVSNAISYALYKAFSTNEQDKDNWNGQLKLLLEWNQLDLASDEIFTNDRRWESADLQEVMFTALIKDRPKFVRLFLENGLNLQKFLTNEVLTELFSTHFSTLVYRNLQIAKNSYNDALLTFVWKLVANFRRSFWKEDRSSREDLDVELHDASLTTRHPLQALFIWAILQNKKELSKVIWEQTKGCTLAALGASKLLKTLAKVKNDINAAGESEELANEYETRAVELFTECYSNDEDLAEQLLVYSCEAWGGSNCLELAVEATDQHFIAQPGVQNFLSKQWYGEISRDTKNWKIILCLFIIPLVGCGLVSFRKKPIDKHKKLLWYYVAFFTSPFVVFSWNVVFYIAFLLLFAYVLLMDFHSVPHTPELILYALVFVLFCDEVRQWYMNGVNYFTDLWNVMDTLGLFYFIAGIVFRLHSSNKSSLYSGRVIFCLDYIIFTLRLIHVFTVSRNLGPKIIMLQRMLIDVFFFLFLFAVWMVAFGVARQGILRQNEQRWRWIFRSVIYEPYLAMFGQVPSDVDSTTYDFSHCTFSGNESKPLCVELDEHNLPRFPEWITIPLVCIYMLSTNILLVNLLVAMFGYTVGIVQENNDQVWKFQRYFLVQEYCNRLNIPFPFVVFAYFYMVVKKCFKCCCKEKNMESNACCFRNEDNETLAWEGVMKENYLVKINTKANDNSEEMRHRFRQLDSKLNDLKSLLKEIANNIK
Method: Murine TRPM8 was used in this study. Point mutations were made by Fast Mutagenesis Kit V2 (SBS Genetech). Primers used to generate point mutations are summarized in Supplementary Table 2. All mutations were confirmed by sequencing.
(§1) HEK293T cells purchased from Kunming Cell Bank, Kunming Institute of Zoology, Chinese Academy of Sciences (ATCC, CRL-3216) were cultured in Dulbecco’s modified Eagle’s medium supplemented with 20 mM L-glutamine and 10% fetal bovine serum. Cells were transiently transfected with cDNA constructs by Lipofectamine 3000 (Life Technologies) following the manufacturer’s protocol. Patch-clamp recordings were performed 1–2 days after transfection.
(§2) Patch-clamp recordings were performed with a HEKA EPC10 amplifier controlled by PatchMaster software (HEKA). Whole-cell recordings were performed at ±80 mV. Patch pipettes were prepared from borosilicate glass and fire-polished to resistance of ~4 MΩ. For whole-cell recording, serial resistance was compensated by 60%. For single-channel recordings, patch pipettes were fire-polished to a higher resistance of 6-to-10 MΩ and then recorded in the inside-out configuration. To maximize the chance of obtaining a patch with only one channel, single-channel recordings were performed about 8 h after transfection. A solution with 130 mM NaCl, 10 mM glucose, 0.2 mM EDTA, and 3 mM HEPES (pH 7.2) was used in both bath and pipette for either whole-cell or single-channel recordings. Membrane potential was clamped at +80 mV for single-channel recordings. Current was sampled at 10 kHz and filtered at 2.9 kHz. All recordings were performed at room temperature (22 °C) with the maximum variation of 1 °C.
(§3) Ligands such as menthol and its analogs were perfused to membrane patch by a gravity-driven system (RSC-200, Bio-Logic). Bath and ligand solution were delivered through separate tubes to minimize the mixing of solutions. Patch pipette was placed in front of the perfusion tube outlet.
(§4) Data from whole-cell recordings were analyzed in Igor Pro version 6.1 (WaveMatrix). EC50 values were derived from fitting a Hill equation to the concentration–response relationship. Changes in EC50 by point mutation may be caused by either perturbation of ligand bind or channel gating or both. To distinguish these possibilities, dissociation constant (Kd) for ligand binding was estimated assuming the following gating scheme:1 C0↔KdC1↔LO, where L is the equilibrium constant for the final closed-to-open transition.
(§5) To perform thermodynamic cycle analysis, Kd values of four channel-ligand combinations (WT channel, menthol: Kd _1; Mutant channel, menthol: Kd _2; WT channel, menthol analog: Kd _3; Mutant channel, menthol analog: Kd _4) were determined separately. The strength of coupling was determined by the coupling energy (kT multiplied by LnΩ, where k is the Boltzmann constant and T is temperature in Kelvin). LnΩ was calculated by Eq. (2) as[51]2 LnΩ=LnKd_1⋅Kd_4/Kd_2⋅Kd_3.

TRPM8 = target: T2, TRPM8 (Mus musculus, UniProt Q8R4D5); test: whole-cell patch-clamp recording in response to a voltage ramp; details: beyond −200 mV; near saturating menthol (0.5 mM)
T2 construct: expressed in transfected cells; host or cells: HEK293T
T2 sequence (Q8R4D5 whole entry): as the sequence (Q8R4D5 whole entry I846V) above, with V846I counted along it
Description: Supplementary Figure 8. Deep hyperpolarization antagonized me nthol activation of TRPM8 but not capsaicin activation of TRPV1. ( a) Representative whole-cell patch- clamp recording of menthol activation of TRPM8 in response to a voltage ramp. In the hyperpolarized voltage range, TRPM8 current increased first and then decreased […]
mM menthol. (b) Representative whole- cell patch- clamp recording of capsaicin activation of TRPV1 in response to a voltage ramp. In the hyperpolarized voltage range, TRPV1 current kept increasing linearly with the lowering of membrane potential, which […]
(1 picture or pasted object on this page, not shown here)

TRPM8 R842K = target: T3, TRPM8 R842K (Mus musculus, UniProt Q8R4D5, R842K); test: whole-cell patch-clamp and thermodynamic mutant cycle analysis
T3 construct: expressed in transfected cells; host or cells: HEK293T
T3 sequence (Q8R4D5 whole entry R842K): as the sequence (Q8R4D5 whole entry I846V) above, with R842K, V846I counted along it
Method: (§6) Murine TRPM8 was used in this study. Point mutations were made by Fast Mutagenesis Kit V2 (SBS Genetech). Primers used to generate point mutations are summarized in Supplementary Table 2.
as §1, §2, §3
as §4, with “Changes in EC50 by point mutation may be caused by either perturbation of ligand bind or channel gating or both.” left out
as §5

TRPM8 Y1005F = target: T4, TRPM8 Y1005F (Mus musculus, UniProt Q8R4D5, Y1005F); test: as above; details: patch-clamp, peer review file
T4 construct: expressed in transfected cells; host or cells: HEK293T
T4 sequence (Q8R4D5 whole entry Y1005F): as the sequence (Q8R4D5 whole entry I846V) above, with V846I, Y1005F counted along it
Method: as §6, §1, §2, §3
as §4, with “Changes in EC50 by point mutation may be caused by either perturbation of ligand bind or channel gating or both.” left out
as §5

TRPM8 Y745H = target: T5, TRPM8 Y745H (Mus musculus, UniProt Q8R4D5, Y745H); test: whole-cell patch-clamp recording of menthol activation; details: Y745H mutation
T5 construct: expressed in transfected cells; host or cells: HEK293T
T5 sequence (Q8R4D5 whole entry Y745H): as the sequence (Q8R4D5 whole entry I846V) above, with Y745H, V846I counted along it
Method: as §6, §1
as §2, with “Membrane potential was clamped at +80 mV for single-channel recordings. Current was sampled at 10 kHz and filtered at 2.9 kHz. All recordings were performed at room temperature (22 °C) with the maximum variation of 1 °C.” left out

wild-type TRPM8 = target: T6, wild-type TRPM8 (Mus musculus, UniProt Q8R4D5); test: whole-cell patch-clamp recording of ligand activation
T6 construct: expressed in transfected cells; host or cells: HEK293T
T6 sequence (Q8R4D5 whole entry): as the sequence (Q8R4D5 whole entry I846V) above, with V846I counted along it
Method: as §6
Cells were transiently transfected with cDNA constructs by Lipofectamine 3000 (Life Technologies) following the manufacturer’s protocol. Patch-clamp recordings were performed 1–2 days after transfection.
as §2, §3
as §4, with “Changes in EC50 by point mutation may be caused by either perturbation of ligand bind or channel gating or both.” left out

[1] = calculated from concentration–response curves, read-out: Kd, Ave

CC(C)[C@@H]1CC[C@@H](C)C[C@H]1O [menthol, (−)-menthol]
L (equilibrium constant between closed and open states upon ligand binding), Ave (TRPM8 I846V): 5.981
concentration–response curve value, ave (TRPM8 I846V; 1 microM): 0.07755
concentration–response curve value, ave (TRPM8 I846V; 20 microM): 0.2593
concentration–response curve value, ave (TRPM8 I846V; 100 microM): 0.6986
concentration–response curve value, ave (TRPM8 I846V; 500 microM): 0.7722
concentration–response curve value, ave (TRPM8 I846V; 2000 microM): 0.7707
concentration–response curve value, single recording (TRPM8 I846V; 2000 microM): 0.8798 and 0.8106 and 0.8028 and 0.882 and 0.5707 and 0.6784
Kd (TRPM8 I846V; [1]): 120 µM
Kd (TRPM8 I846V; read-out: Kd, single recording): 88.3 µM and 109 µM and 97.6 µM and 116 µM and 189 µM
effect of deep hyperpolarization on ligand-activated channel (TRPM8): decreased towards zero; also recorded: closed the channel
L (equilibrium constant between closed and open states upon ligand binding), Ave (TRPM8 R842K): 18.3882
L, single recording (TRPM8 R842K): 24.6476 and 13.2288 and 17.2882
concentration–response curve value, ave (TRPM8 R842K; 20 microM): 0.01439
concentration–response curve value, ave (TRPM8 R842K; 100 microM): 0.2373
concentration–response curve value, single recording (TRPM8 R842K; 100 microM): 0.2375 and 0.1865 and 0.1541 and 0.2977 and 0.2927 and 0.2 and 0.2925
concentration–response curve value, ave (TRPM8 R842K; 500 microM): 0.6774
concentration–response curve value, single recording (TRPM8 R842K; 500 microM): 0.6802 and 0.7221 and 0.591 and 0.6718 and 0.7751 and 0.601 and 0.7009
concentration–response curve value, ave (TRPM8 R842K; 1000 microM): 0.8246
concentration–response curve value, single recording (TRPM8 R842K; 1000 microM): 0.892 and 0.8781 and 0.8012 and 0.8485 and 0.8182 and 0.7917 and 0.7425
concentration–response curve value, ave (TRPM8 R842K; 2000 microM): 0.8146
concentration–response curve value, single recording (TRPM8 R842K; 2000 microM): 0.9219 and 0.8808 and 0.8026 and 0.7789 and 0.777 and 0.8121 and 0.7292
Kd (TRPM8 R842K; [1]): 8710 µM
Kd (TRPM8 R842K; read-out: Kd, single recording): 8480 µM and 6830 µM and 10800 µM
EC50 (TRPM8 Y1005F): 498 ± 8.7 µM
Menthol activation (TRPM8 Y745H): barely activated; also recorded: virtually abolished
L (equilibrium constant between closed and open states upon ligand binding), Ave (wild-type TRPM8; WT): 4.672 and 4.642
concentration–response curve value, ave (wild-type TRPM8; WT, 1 microM): 0.025 and 0.02453
concentration–response curve value, single recording (wild-type TRPM8; WT, 1 microM): 0.025 and 0.02453
concentration–response curve value, ave (wild-type TRPM8; WT, 10 microM): 0.025 and 0.0249
concentration–response curve value, single recording (wild-type TRPM8; WT, 10 microM): 0.021 and 0.029 and 0.02072 and 0.02909
concentration–response curve value, ave (wild-type TRPM8; WT, 20 microM): 0.043
concentration–response curve value, ave (wild-type TRPM8; WT, 30 microM): 0.090 and 0.08976
concentration–response curve value, ave (wild-type TRPM8; WT, 100 microM): 0.426 and 0.4264
concentration–response curve value, single recording (wild-type TRPM8; WT, 100 microM): 0.426 and 0.453 and 0.400 and 0.4256 and 0.4532 and 0.4003
concentration–response curve value, ave (wild-type TRPM8; WT, 500 microM): 0.760 and 0.7604
concentration–response curve value, single recording (wild-type TRPM8; WT, 500 microM): 0.796 and 0.730 and 0.755 and 0.7302 and 0.7548
concentration–response curve value, ave (wild-type TRPM8; WT, 1000 microM): 0.801 and 0.8014
concentration–response curve value, single recording (wild-type TRPM8; WT, 1000 microM): 0.847 and 0.769 and 0.788 and 0.8469 and 0.7692 and 0.7882
Kd (wild-type TRPM8; WT, calculated from concentration–response curves (EC50 and Po max), read-out: Kd, Ave): 966 µM
Hill coefficient (wild-type TRPM8; wild-type TRPM8): 1.74 ± 0.06
